# Source: patent US8212007B2, “Expression and purification of HIP/PAP and uses therefor” (priority 2007, dated 2012)
# What was measured:
# [1] = tested on: intestinal bacteria recovered from conventional mouse small intestine; assay: Flow cytometry binding to intestinal bacteria; details: 30 μM conjugate, 40 minutes on ice, formaldehyde-fixed bacteria
# Listeria monocytogenes = assay: Bactericidal activity after N-terminal cleavage with trypsin; type: cell-based; details: 5 μM protein, 2 hours at 37° C., L. monocytogenes
# Procedure: Eleven amino acids were truncated from the N-terminus HIP/PAP resulting in increase bactericidal activity.
# Purified recombinant HIP/PAP was cleaved by the addition of bovine trypsin (Sigma) in a 1:200 molar ratio (trypsin:HIP/PAP). After 2 hours incubation at 37° C., 5 μM trypsin-treated HIP/PAP or uncleaved recombinant HIP/PAP was added to Listeria monocytogenes that had been grown to mid-log phase in brain-heart infusion (BHI) broth and resuspended in 25 mM MES pH 6, 25 mM NaCl. Initial bacterial concentrations ranged from 10^5 to 10^6 CFU/ml. After incubation for 2 hours at 37° C., viable bacteria were quantitated by dilution plating on BHI agar plates.
Substance,binding of AlexaFluor555 conjugate to intestinal bacteria (flow cytometry) [1],bactericidal activity with or without N-terminal truncation (11 amino acids) (Listeria monocytogenes)
"BSA-AlexaFluor555: AlexaFluor555-labeled BSA, control for flow cytometry binding to intestinal bacteria",no binding,–
"trypsin-treated HIP/PAP: recombinant HIP/PAP cleaved with bovine trypsin, 11 amino acids removed from the N-terminus",–,increased bactericidal activity
